Assay results published in ChEMBL document CHEMBL4364331, “Identification of CB1 Receptor Allosteric Sites Using Force-Biased MMC Simulated Annealing and Validation by Structure-Activity Relationship Studies” (ACS Med Chem Lett, 2019).

Tests used:
Cannabinoid receptor 1 [1] = target: Cannabinoid receptor 1 (Mus musculus, UniProt P47746); experiment: Positive allosteric modulatory activity at mouse CB1R expressed in CHO-K1 cells assessed as CP55940-induced beta-arrestin2 recruitment by pathhunter beta-arrestin assay; format: cell-based
Cannabinoid receptor 1 [2] = target: T1, Cannabinoid receptor 1 (Homo sapiens, UniProt P21554); experiment: Positive allosteric modulatory activity at human CB1R expressed in CHO-K1 cells assessed as CP55940-induced cAMP level by hit-hunter cAMP assay relative to control; format: functional, cell-based
[3] = target: Cannabinoid receptor 1 (Mus musculus) (UniProt P47746); experiment: Positive allosteric modulatory activity at mouse CB1R expressed in CHO-K1 cells assessed as CP55940-induced beta-arrestin2 recruitment by pathhunter beta-arrestin assay relative to control; format: cell-based
Cannabinoid receptor 1 [4] = target: T1, Cannabinoid receptor 1; experiment: Positive allosteric modulatory activity at human CB1R expressed in CHO-K1 cells assessed as CP55940-induced cAMP level by hit-hunter cAMP assay; format: functional, cell-based

Cannabinoid receptor 1 (Mus musculus), sequence (P47746 whole entry): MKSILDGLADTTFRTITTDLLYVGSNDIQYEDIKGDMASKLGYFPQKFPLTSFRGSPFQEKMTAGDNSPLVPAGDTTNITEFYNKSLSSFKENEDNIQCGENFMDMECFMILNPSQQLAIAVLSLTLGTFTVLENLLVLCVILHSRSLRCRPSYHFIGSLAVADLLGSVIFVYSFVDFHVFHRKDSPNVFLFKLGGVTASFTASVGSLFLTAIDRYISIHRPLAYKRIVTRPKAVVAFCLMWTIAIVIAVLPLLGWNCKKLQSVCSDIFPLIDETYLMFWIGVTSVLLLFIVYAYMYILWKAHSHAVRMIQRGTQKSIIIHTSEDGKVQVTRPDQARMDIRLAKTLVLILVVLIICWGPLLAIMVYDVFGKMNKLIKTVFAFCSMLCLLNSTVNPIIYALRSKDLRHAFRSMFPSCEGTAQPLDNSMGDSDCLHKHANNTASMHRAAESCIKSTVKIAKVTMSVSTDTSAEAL
Cannabinoid receptor 1 (Mus musculus, UniProt P47746), sequence (P47746 whole entry): as above
T1 sequence (P21554 whole entry): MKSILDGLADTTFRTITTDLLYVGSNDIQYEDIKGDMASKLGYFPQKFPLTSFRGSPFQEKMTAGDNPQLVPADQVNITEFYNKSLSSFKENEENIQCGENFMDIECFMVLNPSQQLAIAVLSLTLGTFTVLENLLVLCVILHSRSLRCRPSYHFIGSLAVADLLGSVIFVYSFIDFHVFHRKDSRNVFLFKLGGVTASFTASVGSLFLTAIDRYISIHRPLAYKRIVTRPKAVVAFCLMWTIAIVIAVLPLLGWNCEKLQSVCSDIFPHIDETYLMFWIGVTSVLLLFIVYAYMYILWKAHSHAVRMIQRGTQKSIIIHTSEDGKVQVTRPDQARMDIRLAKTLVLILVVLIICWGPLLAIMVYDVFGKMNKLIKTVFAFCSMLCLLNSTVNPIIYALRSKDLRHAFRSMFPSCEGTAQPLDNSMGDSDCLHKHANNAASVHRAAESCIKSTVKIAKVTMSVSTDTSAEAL

SMILES	EC50 (Cannabinoid receptor 1 [1])	Emax (Cannabinoid receptor 1 [2])	Emax [3]	EC50 (Cannabinoid receptor 1 [4])
O=[N+]([O-])CC(c1ccccc1)c1cc[nH]c1-c1ccccc1 (stereo unspecified)	> 10 µM	0%	0%	> 10 µM
O=[N+]([O-])CCc1c(-c2ccccc2)[nH]c2ccccc12	> 10 µM	85%	0%	5.53 µM
O=[N+]([O-])CC(c1ccccc1)c1c(-c2ccccc2)[nH]c2ccccc12 (stereo unspecified)	0.94 µM	110%	46%	–
Cn1c(-c2ccccc2)c(C(C[N+](=O)[O-])c2ccccc2)c2ccccc21 (stereo unspecified)	> 10 µM	0%	0%	> 10 µM
O=[N+]([O-])CC(c1ccccc1)c1c[nH]c2ccccc12 (stereo unspecified)	> 10 µM	0%	0%	> 10 µM
NCC(c1ccccc1)c1c(-c2ccccc2)[nH]c2ccccc12 (stereo unspecified)	> 10 µM	12%	12%	> 10 µM
O=[N+]([O-])CC(c1ccccc1)c1cn(-c2ccccc2)c2ccccc12 (stereo unspecified)	> 10 µM	0%	0%	> 10 µM
O=[N+]([O-])CC(c1ccccc1)c1c(C2CCCCC2)[nH]c2ccccc12 (stereo unspecified)	> 10 µM	121%	0%	0.992 µM
